Test [1] concerns the target Programmed cell death 1 ligand 1 (Homo sapiens, UniProt Q9NZQ7, H140E). Description: Binding affinity to human 15N-labelled 6His-tagged PDL1 IgV domain H140E mutant (18 to 134 residues) expressed in Escherichia coli BL21 (DE3) by 1D-1H NMR spectroscopy.
The test system of test [2] is Programmed cell death 1 ligand 1 (Homo sapiens), Q9NZQ7 [UNDEFINED MUTATION]. Description: Displacement of 15N-labelled PD1 from human 15N-labelled 6His-tagged PDL1 IgV domain H140E mutant (18 to 134 residues) at 800 uM assessed as rescue signal intensity by HMQC spectra analysis.
Sequence of Programmed cell death 1 ligand 1 (Homo sapiens), Q9NZQ7 [UNDEFINED MUTATION] (Q9NZQ7 whole entry, looked up, stated change not applied, the tested form may be a part): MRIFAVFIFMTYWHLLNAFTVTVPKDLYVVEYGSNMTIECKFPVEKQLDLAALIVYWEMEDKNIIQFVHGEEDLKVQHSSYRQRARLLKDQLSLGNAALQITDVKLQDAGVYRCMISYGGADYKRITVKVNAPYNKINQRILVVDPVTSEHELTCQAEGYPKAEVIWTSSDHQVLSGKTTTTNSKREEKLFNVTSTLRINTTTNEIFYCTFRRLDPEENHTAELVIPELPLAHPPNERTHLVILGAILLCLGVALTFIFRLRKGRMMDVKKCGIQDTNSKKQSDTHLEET
Test [3] shares this test system. Description: Displacement of 15N-labelled PD1 from human 15N-labelled 6His-tagged PDL1 IgV domain H140E mutant (18 to 134 residues) at 2 mM assessed as rescue signal intensity by HMQC spectra analysis.

SMILES strings stand for the structures.

One may read the Kd as a measure of binding affinity in units of concentration.

Sequence of Programmed cell death 1 ligand 1 (Q9NZQ7 whole entry, looked up, stated change not applied, the tested form may be a part): as above

On to `Cc1cc(Nc2ccc(N3CCCC3)cc2)ncn1`, for which the Kd in test [1] (read-out: Kd) was 3 mM. For the same molecule, the Activity in test [2] lay in the range of 1 to 15%.
In the case of `CNCc1ccc(-c2cc(Cl)cc(Cl)c2)o1`, the Kd in test [1] (read-out: Kd) was 1.9 mM. Also, the Activity in test [2] is over 15%.
In the case of `COC(=O)c1[nH]cc(-c2ccccc2F)c1N`, the equilibrium dissociation constant (Kd) entry in test [1] is listed as “Nd(Insoluble)”. Further, the Activity in test [2] lay in the range of 1 to 15%.
On to `CC(=O)Oc1ccc2c(c1)cc(C)n2C`, for which the Kd result in test [1] is listed as “Nd(Insoluble)”. The Activity in test [2] was over 15%.
For the molecule `Cc1sc(N)nc1-c1ccc2c(c1)OCCO2`, the Kd in test [1] (read-out: Kd) is 1.2 mM. The Activity in test [2] is over 15%.
In the case of `Oc1ncnc2scc(-c3ccccc3)c12`, the dissociation constant (Kd) entry in test [1] is recorded as “Nd(Insoluble)”. The figures for the Activity in test [2] and in test [3] were over 15% and 75%, respectively.
Take `Cc1nc2cc(-c3ccccc3)ccc2o1`: the Kd result in test [1] was “Nd(Insoluble)”. Moreover, the Activity in test [2] fell in the range of 1 to 15%.
Take `COc1ccc2nc(NCc3cccnc3)sc2c1`: the Kd in test [1] (read-out: Kd) worked out at 2.9 mM. In addition, the Activity in test [2] lay within 1 to 15%.
Turning to `CCN(CC)C(=O)c1sc2ccccc2c1Cl`, the Kd in test [1] (read-out: Kd) came out at 2.5 mM. In test [2], the Activity was over 15%.

The values are drawn from ChEMBL document CHEMBL4422676, “Fragment-based screening of programmed death ligand 1 (PD-L1)” (Bioorg Med Chem Lett, 2019).
